The assay has as its system VE-cadherin (Cdh5) mRNA. Put plainly: In vivo endothelial Cdh5 gene silencing after intravenous siCdh5 LNP, tissue mRNA by RT-qPCR. Set-up: species or system mice. The conditions noted are these: for RNA delivery to endothelial cells vs DOTAP and EDMPC: formulation screening, summary statement. The source says:
Cadherin (Cdh5), also known as vascular endothelial cadherin (VE-cadherin) is a useful target gene to evaluate endothelial cell siRNA delivery in that Cdh5 expression is strictly limited to endothelial cells. By quantifying Cdh5 mRNA remaining in the tissues after siCdh5 administration, RNA delivery efficiency to endothelial cells can be evaluated.
Animal Experiments: All animal studies were approved by the MIT Institutional Animal Care and Use Committee (CAC) and were consistent with local, state, and federal regulations as applicable. All experimental procedures were performed with ethical compliance and approval under the guidelines for Division of Comparative Medicine by Massachusetts Institute of Technology. Female C57BL/6 mice (6 weeks) were obtained from Jackson Laboratory, housed in an MIT animal facility, and acclimated for at least 3 days before the initiation of a study.
For intravenous administration, siRNA-lipid nanoparticles diluted in PBS were injected […] using 29 g, 3/10 cc insulin syringes (BD Biosciences) after gentle warming of the animals using a heat lamp. For intramuscular administration, siRNA-lipid nanoparticles diluted in PBS were injected […] using 29 g, 3/10 cc insulin syringes (BD Biosciences).
48-72 hours after injection, organs or tissues including the heart, liver, spleen, lung, kidneys, muscle (quadriceps), and brain were collected and soaked in RNAlater solution (Thermo Fisher) for 12-48 hours at 4° C. and stored at −20° C. after the removal of RNAlater.
Tissue mRNA Quantification by RT-qPCR: Total RNA was isolated from tissues using the TRIzol (Thermo Fisher) and Direct-zol-96 MagBead (Zymo Research), or Quick-RNA MagBead (Zymo Research). Briefly, tissue punches were placed in a deep-well 96 well plate with 4-mm stainless beads and lysed with 350 μL TRIzol, or 250 μL DNA/RNA Shield (Zymo Reaearch) using a GenoGrinder2010. Total RNA was further purified using Direct-zol-96 MagBead (Zymo Research) or Quick-RNA MagBead (Zymo Research) according to the manufacturer's protocol.
cDNA was synthesized using ABI High Capacity cDNA Reverse Transcription Kit (Applied Biosystems #4368814) according to manufacturer instructions. Briefly, 5 μl of a master mix containing 1 μl 10X Buffer, 0.4 μl 25X dNTPs, 1 μl 10X Random primers, 0.5 μl Reverse Transcriptase, and 2.1 μl of water per reaction was added to 5 μl total RNA solution that was isolated using the above protocol. Plates were sealed, mixed, and incubated on a thermal cycler for 10 minutes at 25° C., followed by 2 hours at 37° C. and 5 minutes at 85° C.
Gene expression was analyzed in qPCR with Luna® Universal Probe RT-qPCR Kit (NEB) and Taqman probes-Cdh5 (Mm00486938_m1), and Gusb (Mm01197698_m1) or B2m (Mm00437762_m1). Samples were amplified using a LightCycler 480 qPCR machine (Roche). Cdh5 expression was normalized to B2m or Gusb.

Where [1] appears, read: Example 3: 20% cationic lipid LNPs, siCdh5 0.5 mg/kg i.v.

As to `CCCCCCCCCCCCCC(=O)OC[C@H](COP(=O)(OCC)OCC[N+](C)(C)C)OC(=O)CCCCCCCCCCCCC` (some centres unmarked) [EDMPC, 1,2-dimyristoyl-sn-glycero-3-ethylphosphocholine], the “endothelial delivery, EDMPC (14:0 EPC) vs EDLPC (12:0 EPC)” value under setting [1] is on record as “more efficient endothelial delivery”.
On to `CCCCCCCCCCCCCCCC(=O)OC[C@H](COP(=O)(OCC)OCC[N+](C)(C)C)OC(=O)CCCCCCCCCCCCCCC` (some centres unmarked) [EDPPC, 1,2-dipalmitoyl-sn-glycero-3-ethylphosphocholine], for which the “RNA delivery to endothelial cells vs DOTAP and EDMPC” value was “much more efficiently”. Also, the “delivery to endothelial cells among screened cationic lipids” value under setting [1] is “most efficacious delivery to endothelial cells”.
For `CCCCCCCCCCCCCC(=O)OCCN(CCOC(=O)CCCCCCCCCCCCC)C(=O)C[N+](C)(C)C` [DC-6-14, O,O′-ditetradecanoyl-N-(a-trimethylammonioacetyl) diethanolamine] the same measures were “much more efficiently” and “most efficacious delivery to endothelial cells”.
Turning to `CCCCCCCCCCCCCCCC(=O)OCC(C[N+](C)(C)C)OC(=O)CCCCCCCCCCCCCCC` (centres unmarked) [DPTAP, 1,2-dipalmitoyl-3-trimethylammonium-propane], the “RNA delivery to endothelial cells vs DOTAP and EDMPC” value is on record as “much more efficiently”. In addition, under setting [1], the “delivery to endothelial cells among screened cationic lipids” value is “most efficacious delivery to endothelial cells” and the “endothelial delivery, DPTAP (16:0 TAP) vs DSTAP (18:0 TAP)” value is reported as “significantly more efficient endothelial delivery”.

These data come from patent publication US20250049713A1, “LIPID NANOPARTICLES FOR DELIVERY OF AGENTS” (Massachusetts Institute of Technology, priority 2023, published 2025).
